Experimental data from patent US20220378688A1, “Moisturizing or anti-atopic composition containing fatty acids or fatty acid derivatives” (DAEBONG LS, LTD, priority 2019, published 2022).
“And” between values parts separate entries of the source, which are not always exact repeats. Equal entries are not always repeated.

Columns and labels:
Format in all cases: cell-based, human
HaCaT cells = experiment: Cytotoxicity assessment, EZ-Cytox assay, HaCaT cell growth rate; conditions: untreated = 100
Procedure: HaCaT cells, which are human epidermal keratinocytes, were distributed from Dr. C. G. Hyun (Jeju National University, Korea) and Dulbecco's Modified Eagle's Medium (DMEM) medium containing 100 units/ml of penicillin-streptomycin and 10% by volume of fetal bovine serum (FBS) was used and cultured at 37° C. and 5% CO2 incubator. Subculture was performed at intervals of 3 to 4 days.
The EZ-cytox assay is a representative method for measuring cell viability using the principle that water solution tetrazolium salt (WST) reacts with dehydrogenase of living cells to generate orange water-soluble formazan.
HaCaT cells were aliquoted in a 96-well plate at 1.0×10^4 cells/mL using DMEM medium supplemented with 10% by volume of FBS to check cytotoxicity and then cultured at 37° C., 5% CO2 condition for 18 hours. The cultured HaCaT cells were exchanged with serum-free DMEM to treat the extract to be evaluated. After that, EZ-cytox was added to each well and reacted for 30 minutes at 37° C. and 5% CO2, and absorbance was measured at 450 nm using a microplate reader. The average absorbance value for each sample group was obtained, and the cell viability was evaluated by comparing it with the absorbance value of the control group.

hyaluronic acid = experiment: Hyaluronic acid production in HaCaT cells (ELISA); conditions: 24 hours, untreated = 100
Procedure: HaCaT cells were aliquoted in a 24-well plate at 1.0×10^5 cells/mL and cultured at 37° C., 5% CO2 conditions for 18 hours. It was replaced with a serum-free DMEM medium, and the samples in Table 2 were treated and cultured for 24 hours. After that, the culture medium was removed, centrifuged at 15,000 rpm for 5 minutes, and the supernatant was removed and stored frozen (−20° C.) until quantification. As a control group, a sample treated with retinoic acid (RA) at a concentration of 10 μM was used. Enzyme-Linked Immunosorbent Assay (ELISA) was performed using a hyaluronic acid ELISA kit (Elabscience Biotechnology Co., Ltd) and the method provided by the manufacturer.

Filaggrin = experiment: Skin barrier strengthening: filaggrin production in HaCaT cells (ELISA); conditions: 10 μM, 24 hours, untreated = 100
Procedure: HaCaT cells were aliquoted in a 24-well plate at 1.0×10^5 cells/mL and cultured at 37° C., 5% CO2 conditions for 18 hours. It was exchanged with serum-free DMEM, and the carrot stems and leaves extracts and roots extracts of the samples in Table 2 were treated and cultured for 24 hours. After removing the culture medium and washing with PBS for each group, PBS is containing no drug that may affect protein quantification was treated. The protein was collected after lysing the cells by repeating low-temperature and room-temperature incubation. As a control group, a sample treated with retinoic acid (RA) at a concentration of 10 μM was used. Quantification was performed using the Filaggrin-ELISA kit (Elabscience Biotechnology Co., Ltd) and was performed by the method provided by the manufacturer.

[1] = system: thymus and activation regulated chemokine (TARC); experiment: TARC production inhibitory activity in HaCaT cells (ELISA); conditions: IFN (30 ng/ml) + TNF (30 ng/ml) stimulated = 100
Procedure: In order to confirm the atopic treatment effect on the carrot stems and leaves extract according to the present disclosure, atopic thymus and activation regulated chemokine (TARC) was analyzed.
HaCaT cells were aliquoted in a 24-well plate at 1.5×10^5 cells/mL and cultured at 37° C., 5% CO2 conditions for 18 hours. […] Then, the atopic chemokine production content of the supernatant obtained by centrifugation of the culture medium (12,000 rpm, 3 min) was measured. All samples were stored frozen (−20° C.) until quantification. For TARC content, a human enzyme-linked immunosorbent assay (ELISA) kit (R&D Systems Inc., Minneapolis, Minn., USA) was used, and the r^2 value of the standard curve for the standard was 0.99 or more.

SMILES | HaCaT cell growth rate (%) (HaCaT cells; 10 μM) | HA production (%) (hyaluronic acid; 10 μM) | FLG production (%) (Filaggrin) | HaCaT cell growth rate (%) (HaCaT cells; 12.5 μM) | HaCaT cell growth rate (%) (HaCaT cells; 25 μM) | HaCaT cell growth rate (%) (HaCaT cells; 50 μM) | HaCaT cell growth rate (%) (HaCaT cells; 100 μM) | HA production (%) (hyaluronic acid; 25 μM) | HA production (%) (hyaluronic acid; 50 μM) | HA production (%) (hyaluronic acid; 100 μM) | TARC production (%) ([1]; 12.5 μM) | TARC production (%) ([1]; 25 μM) | TARC production (%) ([1]; 50 μM)
CC1=C(/C=C/C(C)=C/C=C/C(C)=C/C(=O)O)C(C)(C)CCC1 [Retinoic acid, retinoic acid, reference compound] | 103.8 ± 2.1 | 153.1 ± 0.14% and 100.0 ± 0.36% | 157.5 ± 0.13 | – | – | – | – | – | – | – | – | – | –
CCCCC/C=C\C/C=C\CCCCCCCC(=O)OCC [Ethyl linoleate, ethyl linoleate] | – | – | – | 92.5 ± 3.0 | 92.3 ± 2.0 | 88.9 ± 2.3 | 94.1 ± 3.0 | 92.7 ± 0.27 | 85.5 ± 0.27 | 89.5 ± 0.07 | 78.3 ± 0.10 | 53.8 ± 0.16 | 42 ± 0.81
CCCCC/C=C\C/C=C\CCCCCCCC(=O)OC[C@@H](O)CO (racemic) [Monolinolein] | – | – | – | 106.0 ± 2.6 | 102.2 ± 1.0 | 101.5 ± 1.7 | 122.6 ± 2.1 | 102.7 ± 0.14 | 113.7 ± 0.14 | 114.4 ± 0.05 | 75.2 ± 0.07 | 37.7 ± 1.59 | 30.9 ± 1.97
CC/C=C\C/C=C\C/C=C\CCCCCCCC(=O)O [α-Linolenic acid, α-linolenic acid] | – | – | – | 97.8 ± 3.6 | 96.1 ± 4.4 | 92.1 ± 3.9 | 106.9 ± 1.0 | 105.0 ± 0.06 | 110.5 ± 0.02 | 116.3 ± 0.26 | 72.6 ± 0.03 | 45.6 ± 0.51 | 35.7 ± 1.44
